From US6593373B2, “Pharmaceutical compositions of O-desmethyl-N-mono-desmethyl-tramadol” (Gruenenthal GmbH, priority 2000, dated 2003)
Like-named read-outs stand apart in the source and are kept apart here.

Experiments:
[1] = system: mice phenylquinone writhing; assay: Phenylquinone writhing test; type: in vivo
Procedure: Analgesia was tested in vivo in the mice phenylquinone writhing test. M5 was intravenously administered.

mice tail-flick = assay: Tail-flick test; settings: for Tail-Flick, mouse ED50 i.c.v. / Tail-Flick, mouse ED50 i.v. / Analgesia in tail-flick test, in words: mouse
Procedure: Analgesia was tested in vivo in the mice tail-flick test. M5 was first intravenously administered and then directly into a brain ventricle.

[2] = system: neuronal uptake of norepinephrine (NE); assay: Noradrenaline uptake inhibition, in vitro rat brain; type: biochemical; settings: for IC50: read-out: Noradrenalin uptake IC50
From the text: The inhibition of neuronal uptake of monoamines (norepinephrine; NE) was investigated in in vitro rat brain binding experiments.

[3] = system: neuronal uptake of Serotonin (5-HT); type: biochemical; settings: rat brain
From the text: The inhibition of neuronal uptake of Serotonin (5-HT) was investigated in in vitro rat brain binding experiments.

μ-opioid receptor = target: T1, μ-opioid receptor (Rattus norvegicus, UniProt P33535); assay: μ-opioid (Naloxon) binding, in vitro rat brain
T1 construct: from tissue; host or cells: rat brain
From the text: The μ-opioid receptor binding was investigated in in vitro rat brain binding experiments using naloxone.

[4] = rat brain, naloxone, read-out: Naloxone binding IC50

T1 sequence (P33535 whole entry): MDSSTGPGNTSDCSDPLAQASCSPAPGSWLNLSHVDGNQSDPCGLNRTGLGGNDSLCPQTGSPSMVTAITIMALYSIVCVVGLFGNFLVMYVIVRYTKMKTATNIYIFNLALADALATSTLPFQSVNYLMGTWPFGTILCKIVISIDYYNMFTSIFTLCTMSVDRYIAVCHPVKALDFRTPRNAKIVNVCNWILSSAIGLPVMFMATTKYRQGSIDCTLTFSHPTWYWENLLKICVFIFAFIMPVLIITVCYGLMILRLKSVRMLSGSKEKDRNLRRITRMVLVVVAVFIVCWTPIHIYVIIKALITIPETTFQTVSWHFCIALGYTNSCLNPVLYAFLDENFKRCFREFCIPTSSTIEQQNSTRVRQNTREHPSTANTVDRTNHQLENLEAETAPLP

Row | SMILES | Writhing, mouse ED50 i.c.v. [1] [μg/animal] | ED50 ([1]; iv, mouse) [mg/kg] | ED50 (mice tail-flick; Mus musculus, iv, read-out: Tail-Flick, mouse ED50 i.v.) [mg/kg] | Tail-Flick, mouse ED50 i.c.v. (mice tail-flick) [μg/animal] | IC50 [2] [µM] | IC50 [3] [µM] | Writhing, mouse ED50 i.v. [1] | Tail-Flick, mouse ED50 i.v. (mice tail-flick) | IC50 (μ-opioid receptor; [4]) [µM] | IC50 (μ-opioid receptor) [µM] | μ-opioid receptor affinity (naloxone binding), in words (μ-opioid receptor; rat brain) | Inhibition of norepinephrine uptake, in words [2] | Inhibition of serotonin uptake, in words [3] | Analgesia in writhing test, in words ([1]; mouse, intravenous administration) | Penetration of the blood brain barrier, in words (mice tail-flick; concluded from i.v. versus i.c.v. analgesia) | Analgesia in tail-flick test, in words (mice tail-flick; direct administration into a brain ventricle) | Analgesia in tail-flick test, in words (mice tail-flick; intravenously administered)
1 | COc1cccc([C@@]2(O)CCCC[C@@H]2CN(C)C)c1 (racemic) [Tramadol, (1RS, 2RS)-2[(dimethylamino)methyl]-1-(3-methoxyphenyl)-cyclohexanol] | 67.3 | 6.93 | 13.6 | 98.0 | – | – | – | – | – | – | – | – | – | – | – | – | –
2 | CN(C)C[C@H]1CCCC[C@]1(O)c1cccc(O)c1 [M1] | 0.58 | – | – | 2.1 | 41.4 | 24.2 | 0.49 mg/kg | 1.90 mg/kg | – | – | – | – | – | – | – | – | –
3 | CNCC1CCCCC1(O)c1cccc(OC)c1 (stereo not drawn) [M2] | – | – | – | – | 4.27 | 10.4 | no effect | no effect | 49.1 | – | – | – | – | – | – | – | –
4 | COc1cccc([C@@]2(O)CCCC[C@@H]2CN)c1 [M3] | – | – | – | – | 47.7 | 48.9 | no effect | no effect | 204 | – | – | – | – | – | – | – | –
5 | NC[C@H]1CCCC[C@]1(O)c1cccc(O)c1 [M4] | – | – | – | – | 104 | 375 | no effect | no effect | 23.9 | – | – | – | – | – | – | – | –
6 | CNCC1CCCCC1(O)c1cccc(O)c1 (stereo not drawn) [M5, O-desmethyl-N-mono-desmethyl-tramadol] | 4.99 | – | – | 32.4 | 13.3 | 120 | no effect | no effect | – | 0.31 | strong enough to induce in vivo analgesia | no pronounced effect | no pronounced effect | no pronounced effect | poor penetration of the blood brain barrier | a pronounced effect was seen | no pronounced effect
